Source: US20020035106A1, “Use of potassium channel agonists for reducing fat food consumption” (priority 2000, published 2002)

Assays:
[1] = system: fed male obese Zucker rat; assay: The snacking model: consumption of a palatable high fat or low fat meal; format: in vivo
Excerpt: Rats are habituated to the presence of a palatable high fat meal (Research diets 45% fat D12451) or another palatable low fat meal (Research diets 10% fat D12450B) in their home cage during four hours in the morning two times a week, 9-13a.m. The rats feed ad libitum on rat chow (Altromin #1324, 4% fat) outside the hours of the session and water is present adlibitum. The consumption of the meal is monitored, and as it stabilises, by 7-9 sessions, the animal is ready for use.
The animals are tested two times a week, and the baseline is re-established within 24h. During the experimental session, the compound is administered 30 minutes before the session starts. Food and water intake is monitored at 2 and 4 hours after the meal is presented.

[2] = target: T1, KATP-channels on pancreatic beta-cells (Homo sapiens, UniProt Q09428); conditions: by activation of KATP-channels on pancreatic beta-cells; cited from earlier work
T1 construct: KATP-channels on pancreatic beta-cells; host or cells: pancreatic beta-cells (endogenous)
T1 sequence (Q09428 whole entry): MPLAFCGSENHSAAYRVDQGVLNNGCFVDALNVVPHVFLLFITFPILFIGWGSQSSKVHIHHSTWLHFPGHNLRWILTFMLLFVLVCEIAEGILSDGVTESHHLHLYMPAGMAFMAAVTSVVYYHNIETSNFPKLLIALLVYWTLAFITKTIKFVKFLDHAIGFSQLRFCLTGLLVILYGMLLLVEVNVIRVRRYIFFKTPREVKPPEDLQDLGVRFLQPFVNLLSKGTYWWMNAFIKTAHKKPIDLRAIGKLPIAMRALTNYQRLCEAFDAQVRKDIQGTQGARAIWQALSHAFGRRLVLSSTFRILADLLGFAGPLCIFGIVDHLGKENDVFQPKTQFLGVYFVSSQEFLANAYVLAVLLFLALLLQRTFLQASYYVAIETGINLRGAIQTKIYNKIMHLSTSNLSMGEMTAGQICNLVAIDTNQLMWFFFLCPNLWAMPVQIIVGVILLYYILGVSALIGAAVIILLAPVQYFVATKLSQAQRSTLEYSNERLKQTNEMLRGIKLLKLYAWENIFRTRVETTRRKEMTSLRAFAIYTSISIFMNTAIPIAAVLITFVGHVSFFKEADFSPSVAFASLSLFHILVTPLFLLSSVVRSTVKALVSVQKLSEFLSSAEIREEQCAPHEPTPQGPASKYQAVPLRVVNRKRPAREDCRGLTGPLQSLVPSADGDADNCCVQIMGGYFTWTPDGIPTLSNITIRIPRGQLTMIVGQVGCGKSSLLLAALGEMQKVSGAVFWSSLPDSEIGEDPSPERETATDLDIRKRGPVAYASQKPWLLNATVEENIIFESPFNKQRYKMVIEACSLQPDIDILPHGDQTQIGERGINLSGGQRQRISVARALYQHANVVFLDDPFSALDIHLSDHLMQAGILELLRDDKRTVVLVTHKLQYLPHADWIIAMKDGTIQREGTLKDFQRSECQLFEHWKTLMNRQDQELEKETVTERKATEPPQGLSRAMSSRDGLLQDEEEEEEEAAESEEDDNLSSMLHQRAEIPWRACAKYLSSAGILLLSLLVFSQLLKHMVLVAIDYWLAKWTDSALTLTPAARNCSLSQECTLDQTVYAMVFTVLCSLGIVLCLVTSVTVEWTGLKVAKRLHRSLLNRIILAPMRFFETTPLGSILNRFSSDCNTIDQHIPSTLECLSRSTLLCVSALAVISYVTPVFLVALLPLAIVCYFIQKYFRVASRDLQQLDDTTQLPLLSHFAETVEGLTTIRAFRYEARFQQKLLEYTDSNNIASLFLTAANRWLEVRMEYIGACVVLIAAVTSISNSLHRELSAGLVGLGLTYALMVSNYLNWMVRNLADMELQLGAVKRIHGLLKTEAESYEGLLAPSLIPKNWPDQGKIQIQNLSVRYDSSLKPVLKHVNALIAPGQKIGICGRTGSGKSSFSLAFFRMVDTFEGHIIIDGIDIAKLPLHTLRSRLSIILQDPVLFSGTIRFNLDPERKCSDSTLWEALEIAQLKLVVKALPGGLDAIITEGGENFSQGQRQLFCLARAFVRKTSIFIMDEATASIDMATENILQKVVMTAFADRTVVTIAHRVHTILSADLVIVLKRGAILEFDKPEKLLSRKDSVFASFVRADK
T1 sequence (Q14654 whole entry partner): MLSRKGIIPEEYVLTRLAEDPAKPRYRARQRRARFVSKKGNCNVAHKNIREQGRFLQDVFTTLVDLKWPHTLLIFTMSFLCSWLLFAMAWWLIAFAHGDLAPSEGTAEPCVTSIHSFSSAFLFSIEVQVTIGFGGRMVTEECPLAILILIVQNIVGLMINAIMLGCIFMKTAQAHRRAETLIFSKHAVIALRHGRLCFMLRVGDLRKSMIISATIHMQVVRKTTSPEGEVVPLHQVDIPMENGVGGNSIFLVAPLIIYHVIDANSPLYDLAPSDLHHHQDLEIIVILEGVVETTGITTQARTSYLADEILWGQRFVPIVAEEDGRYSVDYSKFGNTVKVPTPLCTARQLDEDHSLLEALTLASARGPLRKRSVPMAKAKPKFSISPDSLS

obese Zucker rats = conditions: cited from earlier work
[3] = system: hyperinsulinemic obese individuals; conditions: 8 weeks treatment; cited from earlier work
rats = conditions: cited from earlier work
mice = conditions: intracerebroventricular administration; cited from earlier work
[4] = 30 mg/kg PO admin., 30 minutes before session

Structure (SMILES): CC1(NC2=NS(=O)(=O)c3sc(Cl)cc3N2)CC1 [6-Chloro-3-(1-methylcyclopropyl)amino-4H-thieno[3,2-e]-1,2,4-thiadiazine 1,1-dioxide]
- reduced consumption of a high fat meal (45 kcal % fat) ([1]; 5 mg/kg PO admin.): 44%
- reduced consumption of a low fat meal (10 kcal % fat) ([1]; 5 mg/kg PO admin.): 15%
- reduced consumption of a high fat meal (45 kcal % fat) ([1]; 15 mg/kg PO admin.): 64%
- reduced consumption of a low fat meal (10 kcal % fat) ([1]; 15 mg/kg PO admin.): 57%
- reduced consumption of a high fat meal (45 kcal % fat) [1, 4]: 86%
- reduced consumption of a low fat meal (10 kcal % fat) [1, 4]: 75%

Structure (SMILES): CC(C)NC1=NS(=O)(=O)c2sc(Cl)cc2N1 [6-Chloro-3-isopropylamino-4H-thieno[3,2-e]-1,2,4-thiadiazine 1,1-dioxide]
- reduced consumption of a high fat meal (45 kcal % fat) [1, 4]: 77%
- reduced consumption of a low fat meal (10 kcal % fat) [1, 4]: 61%

Structure (SMILES): CC1=Nc2ccc(Cl)cc2S(=O)(=O)N1 [Diazoxide, 7-chloro-3-methyl-2H-1,2,4-benzothiadiazine 1,1-dioxide]
- insulin release [2]: inhibit insulin release
- leptin and lipid metabolising enzymes (obese Zucker rats; adipose tissue of Zucker rats): down-regulate leptin and lipid metabolising enzymes
- glucose tolerance (obese Zucker rats; obese Zucker rats): improve glucose tolerance
- insulin receptor binding (obese Zucker rats; obese Zucker rats): increase insulin receptor binding
- insulin secretion (obese Zucker rats; obese Zucker rats): decrease insulin secretion
- weight gain (obese Zucker rats; obese Zucker rats): decrease weight gain
- antiobesity effect [3]: significant antiobesity effect
- reduced consumption of a high fat meal (45 kcal % fat) [1, 4]: 53%
- reduced consumption of a low fat meal (10 kcal % fat) [1, 4]: 42%

Structure (SMILES): CC1(C)Oc2ccc(C#N)cc2C(N2CCCC2=O)C1O (stereo not drawn) [cromakalim]
- intake of food (rats; intraperitonal administration): reduces the intake of food
- intake of food (mice): increase to intake of food

Structure (SMILES): COc1ccc(Cl)cc1C(=O)NCCc1ccc(S(=O)(=O)NC(=O)NC2CCCCC2)cc1 [glibenclamide]
- food intake (rats; central administration): reduce food intake

Structure (SMILES): CC(N/C(=N\C#N)Nc1ccncc1)C(C)(C)C (stereo not drawn) [pinacidil]
- intake of food (mice): increase to intake of food
